From patent US10202361B2, “Pyridazinones as herbicides” (E I DU PONT DE NEMOURS AND COMPANY, priority 2014, dated 2019)

Tests used:
Assay in all cases: Test D pre-/postemergence controlled growth environment herbicide test
Assay type in all cases: in vivo
Settings in all cases: scale 0 to 100
[1] = tested on: chamomile (scentless chamomile, Matricaria inodora)
From the text: (§1) Seeds of plant species selected from bluegrass (annual bluegrass, Poa annua), blackgrass (Alopecurus myosuroides), canarygrass (Phalaris minor), chickweed (common chickweed, Stellaria media), galium (catchweed bedstraw, Galium aparine), downy bromegrass (Bromus tectorum), field poppy (Papaver rhoeas), field violet (Viola arvensis), foxtail, green (green foxtail, Setaria viridis), deadnettle (henbit deadnettle, Lamium amplexicaule), ryegrass, Italian (Italian ryegrass, Lolium multiflorum), kochia (Kochia scoparia), lambsquarters (Chenopodium album), oilseed rape (Brassica napus), pigweed (Amaranthus retroflexus), chamomile (scentless chamomile, Matricaria inodora), Russian thistle (Salsola kali), speedwell (bird's-eye speedwell, Veronica persica), barley, spring (spring barley, Hordeum vulgare), wheat, spring (spring wheat, Triticum aestivum), buckwheat, wild (wild buckwheat, Polygonum convolvulus), mustard, wild (wild mustard, Sinapis arvensis), oat, wild (wild oat, Avena fatua), radish, wild (wild radish, Raphanus raphanistrum), windgrass (Apera spica-venti), barley, winter (winter barley, Hordeum vulgare), and wheat, winter (winter wheat, Triticum aestivum) were planted into a silt loam soil and treated preemergence with test chemicals formulated in a non-phytotoxic solvent mixture which included a surfactant.
(§2) At the same time, these species were planted in pots containing Redi-Earth® planting medium (Scotts Company, 14111 Scottslawn Road, Marysville, Ohio 43041) comprising spaghnum peat moss, vermiculite, wetting agent and starter nutrients and treated with postemergence applications of the test chemicals formulated in the same manner. Plants ranged in height from 2 to 18 cm (1- to 4-leaf stage). Treated plants and controls were maintained in a controlled growth environment for 14 to 21 d after which time all species were compared to controls and visually evaluated. Plant response ratings, summarized in Table D, are based on a scale of 0 to 100 where 0 is no effect and 100 is complete control. A dash (-) response means no test result.

[2] = tested on: bluegrass (annual bluegrass, Poa annua)
From the text: as §1, §2

[3] = tested on: deadnettle (henbit deadnettle, Lamium amplexicaule)
From the text: as §1, §2

[4] = tested on: wheat, winter (winter wheat, Triticum aestivum)
From the text: as §1, §2

[5] = tested on: windgrass (Apera spica-venti)
From the text: as §1, §2

[6] = tested on: barley, winter (winter barley, Hordeum vulgare)
From the text: as §1, §2

[7] = tested on: ryegrass, Italian (Italian ryegrass, Lolium multiflorum)
From the text: as §1, §2

[8] = tested on: wheat, spring (spring wheat, Triticum aestivum)
From the text: as §1, §2

[9] = tested on: barley, spring (spring barley, Hordeum vulgare)
From the text: as §1, §2

[10] = tested on: galium (catchweed bedstraw, Galium aparine)
From the text: as §1, §2

[11] = tested on: downy bromegrass (Bromus tectorum)
From the text: as §1, §2

`Cc1cc(=O)n(-c2ccc(C(F)(F)F)cc2)nc1Cc1ccnc(C(F)(F)F)c1` [Compound 2, 5-methyl-2-[4-(trifluoromethyl)phenyl]-6-[[2-(trifluoromethyl)-4-pyridinyl]methyl]-3(2H)-pyridazinone] showed a Plant response rating ([1]; Postemergence, 31 g ai/ha) of 30, a Plant response rating ([1]; Postemergence, 62 g ai/ha) of 30 and a Plant response rating ([1]; Postemergence, 125 g ai/ha) of 30. The Plant response rating ([1]; Postemergence, 250 g ai/ha) was 40, the Plant response rating ([1]; Postemergence, 500 g ai/ha) was 60 and the Plant response rating ([1]; Preemergence, 31 g ai/ha) was 0. It also gave a Plant response rating ([1]; Preemergence, 62 g ai/ha) of 0, a Plant response rating ([1]; Preemergence, 125 g ai/ha) of 25 and a Plant response rating ([1]; Preemergence, 250 g ai/ha) of 50. It also gave a Plant response rating ([1]; Preemergence, 500 g ai/ha) of 90, a Plant response rating ([2]; Postemergence, 31 g ai/ha) of 10 and a Plant response rating ([2]; Postemergence, 62 g ai/ha) of 15. For the same molecule, the Plant response rating ([2]; Postemergence, 125 g ai/ha) was 20, the Plant response rating ([2]; Postemergence, 250 g ai/ha) was 20 and the Plant response rating ([2]; Postemergence, 500 g ai/ha) was 30. For the same molecule, the Plant response rating ([2]; Preemergence, 31 g ai/ha) was 0, the Plant response rating ([2]; Preemergence, 62 g ai/ha) was 0 and the Plant response rating ([2]; Preemergence, 125 g ai/ha) was 10. The Plant response rating ([2]; Preemergence, 250 g ai/ha) was 30, the Plant response rating ([2]; Preemergence, 500 g ai/ha) was 100 and the Plant response rating ([3]; Postemergence, 31 g ai/ha) was 40. The Plant response rating ([3]; Postemergence, 62 g ai/ha) was 40, the Plant response rating ([3]; Postemergence, 125 g ai/ha) was 70 and the Plant response rating ([3]; Postemergence, 250 g ai/ha) was 75. It also gave a Plant response rating ([3]; Postemergence, 500 g ai/ha) of 90, a Plant response rating ([3]; Preemergence, 31 g ai/ha) of 100 and a Plant response rating ([3]; Preemergence, 62 g ai/ha) of 100. The Plant response rating ([3]; Preemergence, 125 g ai/ha) was 100, the Plant response rating ([3]; Preemergence, 250 g ai/ha) was 100 and the Plant response rating ([3]; Preemergence, 500 g ai/ha) was 100. The Plant response rating ([4]; Postemergence, 31 g ai/ha) was 10, the Plant response rating ([4]; Postemergence, 62 g ai/ha) was 10 and the Plant response rating ([4]; Postemergence, 125 g ai/ha) was 15. The Plant response rating ([4]; Postemergence, 250 g ai/ha) was 15, the Plant response rating ([4]; Postemergence, 500 g ai/ha) was 20 and the Plant response rating ([4]; Preemergence, 31 g ai/ha) was 0. The Plant response rating ([4]; Preemergence, 62 g ai/ha) was 0, the Plant response rating ([4]; Preemergence, 125 g ai/ha) was 30 and the Plant response rating ([4]; Preemergence, 250 g ai/ha) was 40. It also gave a Plant response rating ([4]; Preemergence, 500 g ai/ha) of 45, a Plant response rating ([5]; Postemergence, 31 g ai/ha) of 10 and a Plant response rating ([5]; Postemergence, 62 g ai/ha) of 15. The Plant response rating ([5]; Postemergence, 125 g ai/ha) was 20, the Plant response rating ([5]; Postemergence, 250 g ai/ha) was 25 and the Plant response rating ([5]; Postemergence, 500 g ai/ha) was 35. The Plant response rating ([5]; Preemergence, 31 g ai/ha) was 20, the Plant response rating ([5]; Preemergence, 62 g ai/ha) was 50 and the Plant response rating ([5]; Preemergence, 125 g ai/ha) was 60. The Plant response rating ([5]; Preemergence, 250 g ai/ha) was 95, the Plant response rating ([5]; Preemergence, 500 g ai/ha) was 100 and the Plant response rating ([6]; Postemergence, 31 g ai/ha) was 10. The Plant response rating ([6]; Postemergence, 62 g ai/ha) was 15, the Plant response rating ([6]; Postemergence, 125 g ai/ha) was 15 and the Plant response rating ([6]; Postemergence, 250 g ai/ha) was 20. The Plant response rating ([6]; Postemergence, 500 g ai/ha) was 25, the Plant response rating ([6]; Preemergence, 31 g ai/ha) was 0 and the Plant response rating ([6]; Preemergence, 62 g ai/ha) was 0. It also gave a Plant response rating ([6]; Preemergence, 125 g ai/ha) of 30, a Plant response rating ([6]; Preemergence, 250 g ai/ha) of 30 and a Plant response rating ([6]; Preemergence, 500 g ai/ha) of 50. It also gave a Plant response rating ([7]; Postemergence, 31 g ai/ha) of 0, a Plant response rating ([7]; Postemergence, 62 g ai/ha) of 10 and a Plant response rating ([7]; Postemergence, 125 g ai/ha) of 15. The Plant response rating ([7]; Postemergence, 250 g ai/ha) was 20, the Plant response rating ([7]; Postemergence, 500 g ai/ha) was 25 and the Plant response rating ([7]; Preemergence, 31 g ai/ha) was 0. For the same molecule, the Plant response rating ([7]; Preemergence, 62 g ai/ha) was 0, the Plant response rating ([7]; Preemergence, 125 g ai/ha) was 25 and the Plant response rating ([7]; Preemergence, 250 g ai/ha) was 30. It also gave a Plant response rating ([7]; Preemergence, 500 g ai/ha) of 35, a Plant response rating ([8]; Postemergence, 31 g ai/ha) of 10 and a Plant response rating ([8]; Postemergence, 62 g ai/ha) of 10. It also gave a Plant response rating ([8]; Postemergence, 125 g ai/ha) of 10, a Plant response rating ([8]; Postemergence, 250 g ai/ha) of 15 and a Plant response rating ([8]; Postemergence, 500 g ai/ha) of 20. For the same molecule, the Plant response rating ([8]; Preemergence, 31 g ai/ha) was 0, the Plant response rating ([8]; Preemergence, 62 g ai/ha) was 0 and the Plant response rating ([8]; Preemergence, 125 g ai/ha) was 15. It also gave a Plant response rating ([8]; Preemergence, 250 g ai/ha) of 30, a Plant response rating ([8]; Preemergence, 500 g ai/ha) of 50 and a Plant response rating ([9]; Postemergence, 31 g ai/ha) of 10. For the same molecule, the Plant response rating ([9]; Postemergence, 62 g ai/ha) was 10, the Plant response rating ([9]; Postemergence, 125 g ai/ha) was 10 and the Plant response rating ([9]; Postemergence, 250 g ai/ha) was 15. The Plant response rating ([9]; Postemergence, 500 g ai/ha) was 25, the Plant response rating ([9]; Preemergence, 31 g ai/ha) was 0 and the Plant response rating ([9]; Preemergence, 62 g ai/ha) was 0. It also gave a Plant response rating ([9]; Preemergence, 125 g ai/ha) of 0, a Plant response rating ([9]; Preemergence, 250 g ai/ha) of 25 and a Plant response rating ([9]; Preemergence, 500 g ai/ha) of 50. It also gave a Plant response rating ([10]; Postemergence, 31 g ai/ha) of 40, a Plant response rating ([10]; Postemergence, 62 g ai/ha) of 40 and a Plant response rating ([10]; Postemergence, 125 g ai/ha) of 50. The Plant response rating ([10]; Postemergence, 250 g ai/ha) was 75, the Plant response rating ([10]; Postemergence, 500 g ai/ha) was 85 and the Plant response rating ([10]; Preemergence, 31 g ai/ha) was 0. It also gave a Plant response rating ([10]; Preemergence, 125 g ai/ha) of 75, a Plant response rating ([10]; Preemergence, 250 g ai/ha) of 100 and a Plant response rating ([10]; Preemergence, 500 g ai/ha) of 100. It also gave a Plant response rating ([11]; Postemergence, 31 g ai/ha) of 10, a Plant response rating ([11]; Postemergence, 62 g ai/ha) of 30 and a Plant response rating ([11]; Postemergence, 125 g ai/ha) of 30. The Plant response rating ([11]; Postemergence, 250 g ai/ha) was 40, the Plant response rating ([11]; Postemergence, 500 g ai/ha) was 45 and the Plant response rating ([11]; Preemergence, 31 g ai/ha) was 0. The Plant response rating ([11]; Preemergence, 62 g ai/ha) was 0, the Plant response rating ([11]; Preemergence, 125 g ai/ha) was 0 and the Plant response rating ([11]; Preemergence, 250 g ai/ha) was 20. For the same molecule, the Plant response rating ([11]; Preemergence, 500 g ai/ha) was 25.
